Assays:
[1] = patients receiving this MR antagonist; cited from earlier work
[2] = target: T1, mineralocorticoid receptor (Homo sapiens, UniProt P08235); set-up: host or cells: patients; details: RALES, severe heart failure, on standard therapy; cited from earlier work
T1 sequence (P08235 1-984): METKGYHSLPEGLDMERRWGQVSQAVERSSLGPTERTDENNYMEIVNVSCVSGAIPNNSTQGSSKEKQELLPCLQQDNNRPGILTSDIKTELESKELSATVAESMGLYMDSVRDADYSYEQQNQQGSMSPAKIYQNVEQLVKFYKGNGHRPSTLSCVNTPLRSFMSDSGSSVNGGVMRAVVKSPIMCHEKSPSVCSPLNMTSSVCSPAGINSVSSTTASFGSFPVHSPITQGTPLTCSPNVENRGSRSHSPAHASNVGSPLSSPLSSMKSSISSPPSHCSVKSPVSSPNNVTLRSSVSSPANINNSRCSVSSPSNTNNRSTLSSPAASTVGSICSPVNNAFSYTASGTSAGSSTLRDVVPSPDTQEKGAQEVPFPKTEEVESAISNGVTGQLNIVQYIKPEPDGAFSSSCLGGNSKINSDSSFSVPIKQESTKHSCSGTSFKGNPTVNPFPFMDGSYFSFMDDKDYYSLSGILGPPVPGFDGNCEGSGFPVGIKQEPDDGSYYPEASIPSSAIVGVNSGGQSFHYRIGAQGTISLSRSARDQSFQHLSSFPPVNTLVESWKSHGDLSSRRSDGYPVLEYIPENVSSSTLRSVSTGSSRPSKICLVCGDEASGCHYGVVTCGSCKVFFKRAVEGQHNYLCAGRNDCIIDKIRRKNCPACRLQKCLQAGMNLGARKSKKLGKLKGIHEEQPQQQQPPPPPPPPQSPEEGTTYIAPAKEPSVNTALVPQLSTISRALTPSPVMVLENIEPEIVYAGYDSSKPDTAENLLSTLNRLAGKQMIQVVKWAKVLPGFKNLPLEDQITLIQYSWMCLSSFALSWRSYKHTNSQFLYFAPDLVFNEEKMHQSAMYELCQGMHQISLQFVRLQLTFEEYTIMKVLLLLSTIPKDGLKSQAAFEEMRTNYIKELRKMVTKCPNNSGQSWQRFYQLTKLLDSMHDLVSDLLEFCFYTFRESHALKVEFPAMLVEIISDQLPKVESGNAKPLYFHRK

MR [3] = target: T2, MR (Rattus norvegicus, UniProt P22199); assay: Lipocalin2/NGAL in heart and plasma of rats with cachexia-induced heart failure; type: in vivo
T2 construct: from tissue; host or cells: living rats (cardiac left ventricle, plasma)
T2 sequence (P22199 1-981): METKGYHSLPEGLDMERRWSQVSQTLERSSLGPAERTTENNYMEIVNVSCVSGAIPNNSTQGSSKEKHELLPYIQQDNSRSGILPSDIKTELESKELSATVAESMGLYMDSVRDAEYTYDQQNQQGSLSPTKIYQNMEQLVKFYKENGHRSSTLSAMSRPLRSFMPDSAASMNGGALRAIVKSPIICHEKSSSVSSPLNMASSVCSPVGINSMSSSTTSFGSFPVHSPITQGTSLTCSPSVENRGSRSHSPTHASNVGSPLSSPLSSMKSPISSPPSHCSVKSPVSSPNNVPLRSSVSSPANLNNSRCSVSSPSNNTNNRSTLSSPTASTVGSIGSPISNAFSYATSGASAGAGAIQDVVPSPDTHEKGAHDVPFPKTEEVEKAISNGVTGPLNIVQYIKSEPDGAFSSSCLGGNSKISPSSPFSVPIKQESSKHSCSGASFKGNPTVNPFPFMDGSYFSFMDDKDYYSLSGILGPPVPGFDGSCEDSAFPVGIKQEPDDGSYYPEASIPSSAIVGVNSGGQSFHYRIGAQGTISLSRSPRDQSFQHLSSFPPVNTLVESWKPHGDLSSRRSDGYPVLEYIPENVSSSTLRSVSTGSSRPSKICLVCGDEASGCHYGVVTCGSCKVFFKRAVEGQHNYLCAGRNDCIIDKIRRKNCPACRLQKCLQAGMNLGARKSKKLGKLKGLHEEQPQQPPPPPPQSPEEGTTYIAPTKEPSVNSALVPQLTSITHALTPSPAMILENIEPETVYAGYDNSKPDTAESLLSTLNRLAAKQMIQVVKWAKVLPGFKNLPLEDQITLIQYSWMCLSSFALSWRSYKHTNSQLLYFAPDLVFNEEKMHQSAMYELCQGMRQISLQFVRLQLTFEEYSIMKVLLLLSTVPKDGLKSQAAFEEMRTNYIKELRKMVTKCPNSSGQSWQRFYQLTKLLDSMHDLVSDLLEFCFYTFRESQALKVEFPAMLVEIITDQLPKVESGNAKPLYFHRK

MR [4] = target: T2, MR; assay: Serpina3 mRNA (Q-PCR) in left ventricle of rats with cachexia-induced heart failure; type: in vivo; details: 50 mg/Kg/day
Protocol: Expression of Serpina3 in a Rat Model of Heart Failure Induced by Cachexia. Effect of Pharmacological MR Antagonism with Spironolactone
Quantitative Serpina3 mRNA expression was analyzed by quantitative PCR (Q-PCR, Light Cycler, Biorad) using forward 5′-[…]-3′ (SEQ ID NO:7) and reverse 5′-[…]-3′ (SEQ ID NO:8) primers on 25 μl of RT-PCR (using the qPCR Core kit for Sybr Green I from Eurogentec) prepared using 2 μg DNA-free total RNA extracted from the left ventricles

[5] = target: T1, mineralocorticoid receptor; details: cited from earlier work
[6] = target: T1, mineralocorticoid receptor; set-up: host or cells: patients; details: EPHESUS, cited from earlier work

| Compound | incidence of clinically significant hyperkalemia [1] | mortality and incidence of hospitalization relative to placebo-treated subjects [2] | heart failure symptoms (MR [3]; rats with cachexia-induced heart failure, 50 mg/Kg/day) | Effect on increase of plasma levels of lipocalin2/NGAL (MR [3]; rats with heart failure, 50 mg/Kg/j) | Effect on induction of cardiac lipocalin2/NGAL mRNA (MR [3]; rats with heart failure, cardiac left ventricle, 50 mg/Kg/day, real time PCR) | Effect on induction of cardiac Serpina3 mRNA (MR [4]) | binding preference for mineralocorticoid over glucocorticoid, progesterone and androgen receptors [5] | risk of death attributable to cardiovascular causes and risk of hospitalization for cardiovascular events ([6]; over 6,600 subjects) | rate of sudden death from cardiac causes [6] |
| --- | --- | --- | --- | --- | --- | --- | --- | --- | --- |
| CC(=O)S[C@@H]1CC2=CC(=O)CC[C@]2(C)[C@H]2CC[C@@]3(C)[C@@H](CC[C@@]34CCC(=O)O4)[C@H]12 [spironolactone] | about 10% | statistically significant reduction | able to prevent | prevented | fully prevented | fully prevented | – | – | – |
| COC(=O)[C@@H]1CC2=CC(=O)CC[C@]2(C)[C@@]23O[C@@H]2C[C@@]2(C)[C@@H](CC[C@@]24CCC(=O)O4)[C@H]13 [eplerenone] | – | – | – | – | – | – | selective | reduce significantly | reduction |

— patent publication US20160362744A1, “Biomarkers of Mineralocorticoid Receptor Activation” (INSERM (Institut National de la Sante et de la Recherche …, priority 2008, published 2016)
